The target in this data set is ATP-binding cassette sub-family C member 2 (Rattus norvegicus, UniProt Q63120). In words: TP_TRANSPORTER: Branched DNA assay in vivo SD rat, kidney. Type of data set: functional, organism-based, Sprague-Dawley.
Chain of ATP-binding cassette sub-family C member 2 (Q63120 whole entry): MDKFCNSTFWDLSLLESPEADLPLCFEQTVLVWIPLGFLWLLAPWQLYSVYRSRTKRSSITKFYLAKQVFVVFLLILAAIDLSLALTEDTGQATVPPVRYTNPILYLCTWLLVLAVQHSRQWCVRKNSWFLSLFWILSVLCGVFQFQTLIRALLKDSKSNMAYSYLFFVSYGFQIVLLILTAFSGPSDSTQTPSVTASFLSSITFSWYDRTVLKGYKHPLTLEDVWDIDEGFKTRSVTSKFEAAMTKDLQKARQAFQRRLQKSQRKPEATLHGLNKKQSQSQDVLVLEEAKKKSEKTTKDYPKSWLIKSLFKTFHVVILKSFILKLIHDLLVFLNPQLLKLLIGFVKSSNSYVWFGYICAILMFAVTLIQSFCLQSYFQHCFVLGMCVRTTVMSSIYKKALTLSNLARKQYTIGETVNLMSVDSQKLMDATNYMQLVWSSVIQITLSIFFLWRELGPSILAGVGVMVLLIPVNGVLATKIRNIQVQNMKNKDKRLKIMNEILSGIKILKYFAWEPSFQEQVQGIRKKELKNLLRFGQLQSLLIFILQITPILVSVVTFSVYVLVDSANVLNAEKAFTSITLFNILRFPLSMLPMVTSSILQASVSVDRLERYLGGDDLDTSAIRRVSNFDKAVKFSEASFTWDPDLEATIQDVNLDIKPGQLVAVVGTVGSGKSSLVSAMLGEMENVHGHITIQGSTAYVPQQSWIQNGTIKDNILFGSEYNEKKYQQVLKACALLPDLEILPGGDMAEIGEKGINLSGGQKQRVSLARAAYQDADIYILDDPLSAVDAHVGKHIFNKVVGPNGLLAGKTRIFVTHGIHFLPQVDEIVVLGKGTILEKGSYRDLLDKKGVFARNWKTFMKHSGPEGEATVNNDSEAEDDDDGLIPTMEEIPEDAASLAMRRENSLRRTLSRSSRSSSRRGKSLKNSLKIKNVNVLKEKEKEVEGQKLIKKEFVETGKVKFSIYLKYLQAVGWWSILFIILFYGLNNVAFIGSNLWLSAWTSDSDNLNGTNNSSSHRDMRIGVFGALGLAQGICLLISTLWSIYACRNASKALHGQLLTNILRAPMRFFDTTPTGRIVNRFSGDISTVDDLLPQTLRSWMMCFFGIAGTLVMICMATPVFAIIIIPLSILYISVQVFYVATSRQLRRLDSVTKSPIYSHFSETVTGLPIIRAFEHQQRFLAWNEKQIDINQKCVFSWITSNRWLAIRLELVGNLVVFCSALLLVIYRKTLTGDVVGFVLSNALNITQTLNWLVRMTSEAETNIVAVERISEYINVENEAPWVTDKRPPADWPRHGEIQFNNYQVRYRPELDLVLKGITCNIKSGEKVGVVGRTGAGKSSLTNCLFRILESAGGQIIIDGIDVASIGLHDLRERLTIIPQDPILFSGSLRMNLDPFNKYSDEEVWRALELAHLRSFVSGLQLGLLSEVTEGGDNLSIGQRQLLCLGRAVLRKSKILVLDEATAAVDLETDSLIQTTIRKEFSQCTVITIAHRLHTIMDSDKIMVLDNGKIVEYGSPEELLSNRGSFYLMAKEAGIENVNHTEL
Turning to `CN(N=O)C(=O)N[C@@H](C=O)[C@@H](O)[C@H](O)[C@H](O)CO` [STREPTOZOCIN], the Activity result was “inducer [+]”.
For `CCCC[C@@H](CC)COC(=O)c1ccccc1C(=O)OC[C@@H](CC)CCCC` [BIS(2-ETHYLHEXYL)PHTHALATE] the value was “inducer [+]”; for `OCc1c[nH]c2ccccc12` [INDOLE-3-CARBINOL], “inducer [+]”; for `O=c1cc(-c2ccccc2)oc2ccc3ccccc3c12` [BETA-NAPHTHOFLAVONE], “inducer [+]”.

For the origin of these results see ChEMBL document CHEMBL2073781, “Organ distribution of multidrug resistance proteins 1, 2, and 3 (Mrp1, 2, and 3) mRNA and hepatic induction of Mrp3 by constitutive androstane receptor activators in rats” (J Pharmacol Exp Ther, 2002).
